Key:
NUAK1 = target: T1, NUAK1 (Homo sapiens, UniProt O60285); test: Kinase selectivity panel, NUAK1; assay type: biochemical
T1 sequence (O60285 1-661): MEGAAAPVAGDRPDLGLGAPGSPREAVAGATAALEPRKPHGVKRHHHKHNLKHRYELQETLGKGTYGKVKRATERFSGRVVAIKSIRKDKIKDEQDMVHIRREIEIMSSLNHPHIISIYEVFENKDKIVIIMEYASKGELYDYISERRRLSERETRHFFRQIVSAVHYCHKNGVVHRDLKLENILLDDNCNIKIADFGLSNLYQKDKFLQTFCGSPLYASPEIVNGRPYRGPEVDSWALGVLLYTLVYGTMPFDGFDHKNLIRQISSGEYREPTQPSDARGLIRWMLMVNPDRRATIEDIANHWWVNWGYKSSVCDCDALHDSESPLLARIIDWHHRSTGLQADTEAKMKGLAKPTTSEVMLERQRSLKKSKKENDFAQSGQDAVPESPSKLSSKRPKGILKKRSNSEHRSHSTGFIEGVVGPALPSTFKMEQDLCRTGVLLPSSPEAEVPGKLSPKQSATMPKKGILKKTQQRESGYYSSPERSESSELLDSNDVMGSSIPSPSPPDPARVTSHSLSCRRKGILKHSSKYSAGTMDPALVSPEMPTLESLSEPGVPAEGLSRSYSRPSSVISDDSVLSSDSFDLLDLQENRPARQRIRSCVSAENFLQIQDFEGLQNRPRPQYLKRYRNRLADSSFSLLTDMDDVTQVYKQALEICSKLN
Description: (§1) The data in Table 42 also provides the fold selectivity of the two compounds in favour of MAP4K4 over the tested kinase. The fold selectivity is indicated in parenthesis.

[1] = tested on: mice undergoing experimental myocardial infarction; test: Infarct size in mice undergoing experimental myocardial infarction; assay type: in vivo; conditions: compared to vehicle control (DMSO)
Method: To test if target validation and compound development in hiPSC-CMs might predict success in a whole-animal context, mice undergoing experimental myocardial infarction were treated with Ex-78 or the vehicle control (DMSO) (FIG. 6). The suppression of cardiac muscle cell death achieved roughly a 55% reduction in infarct size as a proportion of the area at ischemic risk compared to control.

ABL1 = ABL1 (Homo sapiens, UniProt P00519); test: Kinase selectivity panel, ABL1; assay type: biochemical
ABL1, sequence (P00519 whole entry, species assumed): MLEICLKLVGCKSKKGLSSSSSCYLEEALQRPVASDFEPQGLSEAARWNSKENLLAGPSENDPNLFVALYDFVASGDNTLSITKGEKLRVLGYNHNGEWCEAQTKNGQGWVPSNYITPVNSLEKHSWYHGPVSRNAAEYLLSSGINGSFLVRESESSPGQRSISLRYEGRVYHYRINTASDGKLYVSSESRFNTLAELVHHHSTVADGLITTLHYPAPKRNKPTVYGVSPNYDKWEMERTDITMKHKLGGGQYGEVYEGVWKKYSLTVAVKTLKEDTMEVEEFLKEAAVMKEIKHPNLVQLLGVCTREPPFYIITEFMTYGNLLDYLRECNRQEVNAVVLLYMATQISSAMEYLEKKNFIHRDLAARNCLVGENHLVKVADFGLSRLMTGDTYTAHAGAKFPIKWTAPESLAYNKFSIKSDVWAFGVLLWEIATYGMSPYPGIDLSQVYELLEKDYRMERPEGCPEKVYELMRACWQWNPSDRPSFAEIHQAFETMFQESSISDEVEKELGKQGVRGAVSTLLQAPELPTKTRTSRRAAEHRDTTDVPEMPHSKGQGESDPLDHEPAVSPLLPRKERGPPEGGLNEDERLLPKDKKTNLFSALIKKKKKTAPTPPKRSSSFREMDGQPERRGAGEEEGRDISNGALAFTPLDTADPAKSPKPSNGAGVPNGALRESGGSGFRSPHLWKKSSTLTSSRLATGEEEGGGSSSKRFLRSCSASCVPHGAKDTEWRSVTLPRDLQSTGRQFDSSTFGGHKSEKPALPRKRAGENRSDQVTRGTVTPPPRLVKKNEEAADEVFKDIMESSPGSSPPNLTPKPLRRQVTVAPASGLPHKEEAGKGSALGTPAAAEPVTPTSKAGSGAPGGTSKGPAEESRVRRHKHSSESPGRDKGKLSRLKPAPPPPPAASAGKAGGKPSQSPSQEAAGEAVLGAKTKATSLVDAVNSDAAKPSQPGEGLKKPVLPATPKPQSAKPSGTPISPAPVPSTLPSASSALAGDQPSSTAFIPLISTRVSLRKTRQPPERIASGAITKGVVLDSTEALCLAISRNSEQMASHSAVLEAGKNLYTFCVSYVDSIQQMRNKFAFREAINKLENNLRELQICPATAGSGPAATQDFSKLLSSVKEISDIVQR
Description: as §1

TNIK/MAP4K7 = TNIK/MAP4K7 (Homo sapiens, UniProt Q9UKE5); test: Kinase selectivity panel, TNIK/MAP4K7; assay type: biochemical; conditions: read-out: pIC50 TNIK/MAP4K7 (converted)
TNIK/MAP4K7, sequence (Q9UKE5 whole entry): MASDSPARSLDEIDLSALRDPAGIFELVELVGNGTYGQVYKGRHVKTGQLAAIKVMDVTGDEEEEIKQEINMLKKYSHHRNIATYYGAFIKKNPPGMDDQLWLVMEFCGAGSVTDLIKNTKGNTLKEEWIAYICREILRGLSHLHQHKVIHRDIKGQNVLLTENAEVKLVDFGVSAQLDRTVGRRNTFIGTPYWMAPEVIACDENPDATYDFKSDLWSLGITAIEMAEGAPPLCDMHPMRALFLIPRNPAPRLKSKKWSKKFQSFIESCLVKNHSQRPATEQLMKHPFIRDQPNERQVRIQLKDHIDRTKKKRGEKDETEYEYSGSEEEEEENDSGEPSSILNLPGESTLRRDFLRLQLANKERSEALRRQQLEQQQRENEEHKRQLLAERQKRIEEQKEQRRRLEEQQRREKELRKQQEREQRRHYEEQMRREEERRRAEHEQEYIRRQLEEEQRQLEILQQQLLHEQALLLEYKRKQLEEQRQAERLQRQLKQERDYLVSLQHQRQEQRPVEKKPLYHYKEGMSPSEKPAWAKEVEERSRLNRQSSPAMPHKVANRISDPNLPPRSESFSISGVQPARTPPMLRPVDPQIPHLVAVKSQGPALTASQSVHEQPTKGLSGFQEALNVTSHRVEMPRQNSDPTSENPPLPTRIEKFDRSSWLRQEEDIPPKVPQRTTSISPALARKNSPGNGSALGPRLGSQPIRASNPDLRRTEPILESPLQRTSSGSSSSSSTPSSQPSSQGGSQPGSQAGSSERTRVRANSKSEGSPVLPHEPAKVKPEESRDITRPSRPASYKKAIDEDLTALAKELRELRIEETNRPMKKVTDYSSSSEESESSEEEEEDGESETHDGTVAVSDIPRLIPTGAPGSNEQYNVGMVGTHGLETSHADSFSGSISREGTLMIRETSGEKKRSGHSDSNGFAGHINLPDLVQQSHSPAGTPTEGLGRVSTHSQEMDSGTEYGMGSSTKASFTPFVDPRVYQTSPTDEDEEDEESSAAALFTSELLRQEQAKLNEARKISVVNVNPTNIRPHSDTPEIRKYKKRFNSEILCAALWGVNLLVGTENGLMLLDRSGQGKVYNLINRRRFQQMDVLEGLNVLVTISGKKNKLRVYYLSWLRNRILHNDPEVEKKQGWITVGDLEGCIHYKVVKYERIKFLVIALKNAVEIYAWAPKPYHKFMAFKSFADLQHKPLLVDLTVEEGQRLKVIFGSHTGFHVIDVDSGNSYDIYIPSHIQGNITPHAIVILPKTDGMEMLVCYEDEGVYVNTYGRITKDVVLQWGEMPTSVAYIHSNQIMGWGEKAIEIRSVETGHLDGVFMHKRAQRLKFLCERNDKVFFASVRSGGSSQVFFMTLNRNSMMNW
Description: as §1

GCK/MAP4K2 = target: T2, GCK/MAP4K2 (Homo sapiens, UniProt Q12851); test: Kinase selectivity panel, GCK/MAP4K2; assay type: biochemical
T2 sequence (Q12851 1-820): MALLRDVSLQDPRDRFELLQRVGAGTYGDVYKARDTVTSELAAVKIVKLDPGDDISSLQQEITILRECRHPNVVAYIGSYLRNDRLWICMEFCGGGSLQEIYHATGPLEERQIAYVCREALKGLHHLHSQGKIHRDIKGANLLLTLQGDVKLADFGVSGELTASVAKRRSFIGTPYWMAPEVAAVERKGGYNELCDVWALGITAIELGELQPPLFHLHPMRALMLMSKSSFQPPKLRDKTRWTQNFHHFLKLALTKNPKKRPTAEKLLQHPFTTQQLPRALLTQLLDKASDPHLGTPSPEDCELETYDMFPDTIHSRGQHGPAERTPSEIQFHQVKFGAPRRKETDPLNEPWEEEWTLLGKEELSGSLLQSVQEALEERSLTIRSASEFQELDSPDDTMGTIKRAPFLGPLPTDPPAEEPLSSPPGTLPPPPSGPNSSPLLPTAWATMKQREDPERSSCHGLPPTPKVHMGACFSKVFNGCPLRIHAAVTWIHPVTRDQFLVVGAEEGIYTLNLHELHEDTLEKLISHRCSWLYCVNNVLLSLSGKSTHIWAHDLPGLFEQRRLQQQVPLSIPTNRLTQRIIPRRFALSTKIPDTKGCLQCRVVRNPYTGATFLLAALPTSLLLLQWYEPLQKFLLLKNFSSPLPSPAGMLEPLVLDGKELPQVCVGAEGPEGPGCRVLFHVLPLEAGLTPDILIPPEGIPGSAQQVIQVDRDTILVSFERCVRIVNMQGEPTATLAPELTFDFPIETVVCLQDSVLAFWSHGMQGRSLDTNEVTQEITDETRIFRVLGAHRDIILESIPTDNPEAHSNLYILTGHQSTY
Description: as §1

KHS/MAP4K5 = KHS/MAP4K5 (Homo sapiens, UniProt Q9Y4K4); test: Kinase selectivity panel, KHS/MAP4K5; assay type: biochemical
KHS/MAP4K5, sequence (Q9Y4K4 whole entry): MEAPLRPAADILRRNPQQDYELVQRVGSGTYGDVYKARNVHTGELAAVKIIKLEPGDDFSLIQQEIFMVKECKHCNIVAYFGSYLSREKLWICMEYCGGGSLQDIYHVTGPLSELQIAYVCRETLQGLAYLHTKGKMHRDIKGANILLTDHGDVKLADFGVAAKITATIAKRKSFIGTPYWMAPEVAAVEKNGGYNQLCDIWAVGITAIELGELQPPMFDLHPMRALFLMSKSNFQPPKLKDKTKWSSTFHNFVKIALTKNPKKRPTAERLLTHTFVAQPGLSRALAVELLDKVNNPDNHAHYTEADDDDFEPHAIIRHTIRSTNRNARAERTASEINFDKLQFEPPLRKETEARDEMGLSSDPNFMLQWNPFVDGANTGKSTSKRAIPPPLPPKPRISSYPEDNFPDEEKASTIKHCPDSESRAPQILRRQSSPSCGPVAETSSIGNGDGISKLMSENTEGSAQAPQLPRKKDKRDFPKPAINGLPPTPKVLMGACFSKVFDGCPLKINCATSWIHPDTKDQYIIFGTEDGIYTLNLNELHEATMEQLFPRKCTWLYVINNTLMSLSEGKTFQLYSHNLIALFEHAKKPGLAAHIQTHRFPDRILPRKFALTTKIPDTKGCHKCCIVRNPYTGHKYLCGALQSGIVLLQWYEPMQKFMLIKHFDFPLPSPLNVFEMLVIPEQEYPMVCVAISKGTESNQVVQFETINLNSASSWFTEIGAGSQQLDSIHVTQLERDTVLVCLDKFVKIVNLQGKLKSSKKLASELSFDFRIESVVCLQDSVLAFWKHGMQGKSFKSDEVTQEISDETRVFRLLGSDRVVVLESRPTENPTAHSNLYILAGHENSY
Description: as §1

MLK1/MAP3K9 = MLK1/MAP3K9 (Homo sapiens, UniProt P80192); test: Kinase selectivity panel, MLK1/MAP3K9; assay type: biochemical
MLK1/MAP3K9, sequence (P80192 whole entry): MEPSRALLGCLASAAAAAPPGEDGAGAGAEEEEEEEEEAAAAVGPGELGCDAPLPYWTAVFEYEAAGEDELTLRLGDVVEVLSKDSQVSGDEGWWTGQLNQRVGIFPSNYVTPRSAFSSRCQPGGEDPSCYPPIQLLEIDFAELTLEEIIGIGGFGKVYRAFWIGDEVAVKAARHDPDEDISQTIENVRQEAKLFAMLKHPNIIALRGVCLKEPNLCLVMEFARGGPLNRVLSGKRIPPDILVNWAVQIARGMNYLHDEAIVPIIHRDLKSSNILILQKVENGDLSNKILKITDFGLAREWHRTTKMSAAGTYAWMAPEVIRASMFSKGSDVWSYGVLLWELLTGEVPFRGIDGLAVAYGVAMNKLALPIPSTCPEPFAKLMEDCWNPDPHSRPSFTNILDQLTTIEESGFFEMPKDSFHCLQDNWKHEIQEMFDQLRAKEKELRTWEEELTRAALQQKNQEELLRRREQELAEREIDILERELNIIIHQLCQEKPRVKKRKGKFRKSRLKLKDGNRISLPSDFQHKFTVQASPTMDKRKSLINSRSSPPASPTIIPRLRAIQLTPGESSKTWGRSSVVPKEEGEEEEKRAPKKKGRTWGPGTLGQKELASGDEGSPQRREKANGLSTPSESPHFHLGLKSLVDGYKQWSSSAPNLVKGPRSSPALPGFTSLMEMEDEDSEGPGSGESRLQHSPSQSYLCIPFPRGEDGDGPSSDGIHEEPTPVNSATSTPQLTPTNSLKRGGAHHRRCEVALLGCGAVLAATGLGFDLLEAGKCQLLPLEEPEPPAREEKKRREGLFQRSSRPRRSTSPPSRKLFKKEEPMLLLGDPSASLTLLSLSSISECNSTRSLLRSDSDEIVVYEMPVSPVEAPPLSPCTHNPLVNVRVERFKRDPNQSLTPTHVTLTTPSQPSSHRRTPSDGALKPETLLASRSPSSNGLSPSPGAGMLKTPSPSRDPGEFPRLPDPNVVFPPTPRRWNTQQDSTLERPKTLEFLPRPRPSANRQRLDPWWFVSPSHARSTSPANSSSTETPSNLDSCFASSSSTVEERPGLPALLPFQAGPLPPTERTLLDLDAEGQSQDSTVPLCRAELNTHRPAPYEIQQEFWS
Description: as §1

MINK1/MAP4K6 = MINK1/MAP4K6 (Homo sapiens, UniProt Q8N4C8); test: Kinase selectivity panel, MINK1/MAP4K6; assay type: biochemical; conditions: read-out: pIC50 MINK1/MAP4K6 (converted)
Description: as §1

Question: With `CC(C)(O)CCOc1ccc(-c2cn(-c3cccnc3)c3nc[nH]c(=O)c23)cc1` [Ex-78, 5-(4-(3-hydroxy-3-methylbutoxy)phenyl)-7-(pyridin-3-yl)-3,7-dihydro-4H-pyrrolo[2,3-d]pyrimidin-4-one] as the compound, how does the “fold selectivity MAP4K4 over NUAK1” value (NUAK1; in favour of MAP4K4) read?
Answer: (16) fold

Question: What about the IC50 (NUAK1; read-out: pIC50 NUAK1 (converted)) of the same compound?
Answer: 501 nM

Question: And the “reduction in infarct size as a proportion of the area at ischemic risk” value [1]?
Answer: ~55%

Question: And the “fold selectivity MAP4K4 over ABL1” value (ABL1; in favour of MAP4K4)?
Answer: (251) fold

Question: And the IC50 (ABL1; read-out: pIC50 ABL1 (converted))?
Answer: 7940 nM

Question: And the IC50 (TNIK/MAP4K7)?
Answer: 126 nM

Question: What about the “fold selectivity MAP4K4 over GCK/MAP4K2” value (GCK/MAP4K2; in favour of MAP4K4) of the same compound?
Answer: (32) fold

Question: What about the IC50 (GCK/MAP4K2; read-out: pIC50 GCK/MAP4K2 (converted)) of the same compound?
Answer: 1000 nM

Question: What about the “fold selectivity MAP4K4 over KHS/MAP4K5” value (KHS/MAP4K5; in favour of MAP4K4) of the same compound?
Answer: (10) fold

Question: And the IC50 (KHS/MAP4K5; read-out: pIC50 KHS/MAP4K5 (converted))?
Answer: 316 nM

Question: What about the “fold selectivity MAP4K4 over MLK1/MAP3K9” value (MLK1/MAP3K9; in favour of MAP4K4) of the same compound?
Answer: (4) fold

Question: And the IC50 (MLK1/MAP3K9; read-out: pIC50 MLK1/MAP3K9 (converted))?
Answer: 126 nM

Question: What about the IC50 (MINK1/MAP4K6) of the same compound?
Answer: 63.1 nM

Reference: patent US12247045B2, “MAP4K4 inhibitors” (Imperial College Innovations Limited, priority 2018, dated 2025)
